Results from publication PMC11124822, “Discovery and Anticancer Screening of Novel Oxindole-Based Derivative Bearing Pyridyl Group as Potent and Selective Dual FLT3/CDK2 Kinase Inhibitor” (Pharmaceuticals, 2024).

tested on: MOLT-4; test: NCI-60 antiproliferative screen (SRB); assay type: cell-based; details: Homo sapiens; 10 µM single dose, 48 h; MOLT-4 (Leukemia); read-out: Growth inhibition (%)

| Structure (SMILES) | inhibition at 10 µM [%] |
| --- | --- |
| O=C1Nc2ccccc2C1=Cc1ccc(OCc2ccncc2)cc1 (mixture of isomers) [Compound 5m, (E/Z)-3-[4-(Pyridin-4-ylmethoxy)benzylidene] indolin-2-one] | 78.5 |

tested on: RPMI-8226; test: NCI-60 antiproliferative screen (SRB); assay type: cell-based, human; details: Homo sapiens; 10 µM single dose, 48 h; RPMI-8226 (Leukemia); read-out: Growth inhibition (%)

| Structure (SMILES) | inhibition at 10 µM [%] |
| --- | --- |
| O=C1Nc2ccccc2C1=Cc1ccc(OCc2ccncc2)cc1 (mixture of isomers) [Compound 5m, (E/Z)-3-[4-(Pyridin-4-ylmethoxy)benzylidene] indolin-2-one] | 71.5 |

tested on: HOP-62; test: NCI-60 antiproliferative screen (SRB); assay type: cell-based, human; details: Homo sapiens; 10 µM single dose, 48 h; HOP-62 (NSCLC); read-out: Growth inhibition (%)

| Structure (SMILES) | inhibition at 10 µM [%] |
| --- | --- |
| O=C1Nc2ccccc2C1=Cc1ccc(OCc2ccncc2)cc1 (mixture of isomers) [Compound 5m, (E/Z)-3-[4-(Pyridin-4-ylmethoxy)benzylidene] indolin-2-one] | 23 |

tested on: HCC-2998; test: NCI-60 antiproliferative screen (SRB); assay type: cell-based, human; details: Homo sapiens; 10 µM single dose, 48 h; HCC-2998 (Colon); read-out: Growth inhibition (%)

| Structure (SMILES) | inhibition at 10 µM [%] |
| --- | --- |
| O=C1Nc2ccccc2C1=Cc1ccc(OCc2ccncc2)cc1 (mixture of isomers) [Compound 5m, (E/Z)-3-[4-(Pyridin-4-ylmethoxy)benzylidene] indolin-2-one] | 20.6 |

tested on: HCT-116; test: NCI-60 antiproliferative screen (SRB); assay type: cell-based, human; details: Homo sapiens; 10 µM single dose, 48 h; HCT-116 (Colon); read-out: Growth inhibition (%)

| Structure (SMILES) | inhibition at 10 µM [%] |
| --- | --- |
| O=C1Nc2ccccc2C1=Cc1ccc(OCc2ccncc2)cc1 (mixture of isomers) [Compound 5m, (E/Z)-3-[4-(Pyridin-4-ylmethoxy)benzylidene] indolin-2-one] | 40.5 |

tested on: KM12; test: NCI-60 antiproliferative screen (SRB); assay type: cell-based, human; details: Homo sapiens; 10 µM single dose, 48 h; KM12 (Colon); read-out: Growth inhibition (%)

| Structure (SMILES) | inhibition at 10 µM [%] |
| --- | --- |
| O=C1Nc2ccccc2C1=Cc1ccc(OCc2ccncc2)cc1 (mixture of isomers) [Compound 5m, (E/Z)-3-[4-(Pyridin-4-ylmethoxy)benzylidene] indolin-2-one] | 66.3 |

tested on: SW-620; test: NCI-60 antiproliferative screen (SRB); assay type: cell-based, human; details: Homo sapiens; 10 µM single dose, 48 h; SW-620 (Colon); read-out: Growth inhibition (%)

| Structure (SMILES) | inhibition at 10 µM [%] |
| --- | --- |
| O=C1Nc2ccccc2C1=Cc1ccc(OCc2ccncc2)cc1 (mixture of isomers) [Compound 5m, (E/Z)-3-[4-(Pyridin-4-ylmethoxy)benzylidene] indolin-2-one] | 22 |

tested on: SF-295; test: NCI-60 antiproliferative screen (SRB); assay type: cell-based, human; details: Homo sapiens; 10 µM single dose, 48 h; SF-295 (CNS); read-out: Growth inhibition (%)

| Structure (SMILES) | inhibition at 10 µM [%] |
| --- | --- |
| O=C1Nc2ccccc2C1=Cc1ccc(OCc2ccncc2)cc1 (mixture of isomers) [Compound 5m, (E/Z)-3-[4-(Pyridin-4-ylmethoxy)benzylidene] indolin-2-one] | 58.3 |

tested on: SF-539; test: NCI-60 antiproliferative screen (SRB); assay type: cell-based, human; details: Homo sapiens; 10 µM single dose, 48 h; SF-539 (CNS); read-out: Growth inhibition (%)

| Structure (SMILES) | inhibition at 10 µM [%] |
| --- | --- |
| O=C1Nc2ccccc2C1=Cc1ccc(OCc2ccncc2)cc1 (mixture of isomers) [Compound 5m, (E/Z)-3-[4-(Pyridin-4-ylmethoxy)benzylidene] indolin-2-one] | 24.9 |

tested on: U251; test: NCI-60 antiproliferative screen (SRB); assay type: cell-based, human; details: Homo sapiens, U-251; 10 µM single dose, 48 h; U251 (CNS); read-out: Growth inhibition (%)

| Structure (SMILES) | inhibition at 10 µM [%] |
| --- | --- |
| O=C1Nc2ccccc2C1=Cc1ccc(OCc2ccncc2)cc1 (mixture of isomers) [Compound 5m, (E/Z)-3-[4-(Pyridin-4-ylmethoxy)benzylidene] indolin-2-one] | 38.9 |

tested on: MALME-3M; test: NCI-60 antiproliferative screen (SRB); assay type: cell-based, human; details: Homo sapiens; 10 µM single dose, 48 h; MALME-3M (Melanoma); read-out: Growth inhibition (%)

| Structure (SMILES) | inhibition at 10 µM [%] |
| --- | --- |
| O=C1Nc2ccccc2C1=Cc1ccc(OCc2ccncc2)cc1 (mixture of isomers) [Compound 5m, (E/Z)-3-[4-(Pyridin-4-ylmethoxy)benzylidene] indolin-2-one] | 17.4 |

tested on: M14; test: NCI-60 antiproliferative screen (SRB); assay type: cell-based, human; details: Homo sapiens; 10 µM single dose, 48 h; M14 (Melanoma); read-out: Growth inhibition (%)

| Structure (SMILES) | inhibition at 10 µM [%] |
| --- | --- |
| O=C1Nc2ccccc2C1=Cc1ccc(OCc2ccncc2)cc1 (mixture of isomers) [Compound 5m, (E/Z)-3-[4-(Pyridin-4-ylmethoxy)benzylidene] indolin-2-one] | 23.7 |

tested on: SK-MEL-2; test: NCI-60 antiproliferative screen (SRB); assay type: cell-based, human; details: Homo sapiens; 10 µM single dose, 48 h; SK-MEL-2 (Melanoma); read-out: Growth inhibition (%)

| Structure (SMILES) | inhibition at 10 µM [%] |
| --- | --- |
| O=C1Nc2ccccc2C1=Cc1ccc(OCc2ccncc2)cc1 (mixture of isomers) [Compound 5m, (E/Z)-3-[4-(Pyridin-4-ylmethoxy)benzylidene] indolin-2-one] | 27.2 |

tested on: SK-MEL-28; test: NCI-60 antiproliferative screen (SRB); assay type: cell-based, human; details: Homo sapiens; 10 µM single dose, 48 h; SK-MEL-28 (Melanoma); read-out: Growth inhibition (%)

| Structure (SMILES) | inhibition at 10 µM [%] |
| --- | --- |
| O=C1Nc2ccccc2C1=Cc1ccc(OCc2ccncc2)cc1 (mixture of isomers) [Compound 5m, (E/Z)-3-[4-(Pyridin-4-ylmethoxy)benzylidene] indolin-2-one] | -4.73 |

tested on: UACC-257; test: NCI-60 antiproliferative screen (SRB); assay type: cell-based, human; details: Homo sapiens; 10 µM single dose, 48 h; UACC-257 (Melanoma); read-out: Growth inhibition (%)

| Structure (SMILES) | inhibition at 10 µM [%] |
| --- | --- |
| O=C1Nc2ccccc2C1=Cc1ccc(OCc2ccncc2)cc1 (mixture of isomers) [Compound 5m, (E/Z)-3-[4-(Pyridin-4-ylmethoxy)benzylidene] indolin-2-one] | 35.8 |

tested on: OVCAR-3; test: NCI-60 antiproliferative screen (SRB); assay type: cell-based, human; details: Homo sapiens; 10 µM single dose, 48 h; OVCAR-3 (Ovarian); read-out: Growth inhibition (%)

| Structure (SMILES) | inhibition at 10 µM [%] |
| --- | --- |
| O=C1Nc2ccccc2C1=Cc1ccc(OCc2ccncc2)cc1 (mixture of isomers) [Compound 5m, (E/Z)-3-[4-(Pyridin-4-ylmethoxy)benzylidene] indolin-2-one] | 21.5 |

tested on: OVCAR-5; test: NCI-60 antiproliferative screen (SRB); assay type: cell-based, human; details: Homo sapiens; 10 µM single dose, 48 h; OVCAR-5 (Ovarian); read-out: Growth inhibition (%)

| Structure (SMILES) | inhibition at 10 µM [%] |
| --- | --- |
| O=C1Nc2ccccc2C1=Cc1ccc(OCc2ccncc2)cc1 (mixture of isomers) [Compound 5m, (E/Z)-3-[4-(Pyridin-4-ylmethoxy)benzylidene] indolin-2-one] | -33.2 |

tested on: OVCAR-8; test: NCI-60 antiproliferative screen (SRB); assay type: cell-based, human; details: Homo sapiens; 10 µM single dose, 48 h; OVCAR-8 (Ovarian); read-out: Growth inhibition (%)

| Structure (SMILES) | inhibition at 10 µM [%] |
| --- | --- |
| O=C1Nc2ccccc2C1=Cc1ccc(OCc2ccncc2)cc1 (mixture of isomers) [Compound 5m, (E/Z)-3-[4-(Pyridin-4-ylmethoxy)benzylidene] indolin-2-one] | 35 |

tested on: NCI/ADR-RES; test: NCI-60 antiproliferative screen (SRB); assay type: cell-based, human; details: Homo sapiens; 10 µM single dose, 48 h; NCI/ADR-RES (Ovarian); read-out: Growth inhibition (%)

| Structure (SMILES) | inhibition at 10 µM [%] |
| --- | --- |
| O=C1Nc2ccccc2C1=Cc1ccc(OCc2ccncc2)cc1 (mixture of isomers) [Compound 5m, (E/Z)-3-[4-(Pyridin-4-ylmethoxy)benzylidene] indolin-2-one] | 61.8 |

tested on: A498; test: NCI-60 antiproliferative screen (SRB); assay type: cell-based, human; details: Homo sapiens; 10 µM single dose, 48 h; A498 (Renal); read-out: Growth inhibition (%)

| Structure (SMILES) | inhibition at 10 µM [%] |
| --- | --- |
| O=C1Nc2ccccc2C1=Cc1ccc(OCc2ccncc2)cc1 (mixture of isomers) [Compound 5m, (E/Z)-3-[4-(Pyridin-4-ylmethoxy)benzylidene] indolin-2-one] | 2.17 |

tested on: CAKI-1; test: NCI-60 antiproliferative screen (SRB); assay type: cell-based, human; details: Homo sapiens; 10 µM single dose, 48 h; CAKI-1 (Renal); read-out: Growth inhibition (%)

| Structure (SMILES) | inhibition at 10 µM [%] |
| --- | --- |
| O=C1Nc2ccccc2C1=Cc1ccc(OCc2ccncc2)cc1 (mixture of isomers) [Compound 5m, (E/Z)-3-[4-(Pyridin-4-ylmethoxy)benzylidene] indolin-2-one] | 45.6 |

tested on: RXF 393; test: NCI-60 antiproliferative screen (SRB); assay type: cell-based, human; details: Homo sapiens; 10 µM single dose, 48 h; RXF 393 (Renal); read-out: Growth inhibition (%)

| Structure (SMILES) | inhibition at 10 µM [%] |
| --- | --- |
| O=C1Nc2ccccc2C1=Cc1ccc(OCc2ccncc2)cc1 (mixture of isomers) [Compound 5m, (E/Z)-3-[4-(Pyridin-4-ylmethoxy)benzylidene] indolin-2-one] | 43.9 |

tested on: UO-31; test: NCI-60 antiproliferative screen (SRB); assay type: cell-based, human; details: Homo sapiens; 10 µM single dose, 48 h; UO-31 (Renal); read-out: Growth inhibition (%)

| Structure (SMILES) | inhibition at 10 µM [%] |
| --- | --- |
| O=C1Nc2ccccc2C1=Cc1ccc(OCc2ccncc2)cc1 (mixture of isomers) [Compound 5m, (E/Z)-3-[4-(Pyridin-4-ylmethoxy)benzylidene] indolin-2-one] | 44.7 |

tested on: PC-3; test: NCI-60 antiproliferative screen (SRB); assay type: cell-based, human; details: Homo sapiens; 10 µM single dose, 48 h; PC-3 (Prostate); read-out: Growth inhibition (%)

| Structure (SMILES) | inhibition at 10 µM [%] |
| --- | --- |
| O=C1Nc2ccccc2C1=Cc1ccc(OCc2ccncc2)cc1 (mixture of isomers) [Compound 5m, (E/Z)-3-[4-(Pyridin-4-ylmethoxy)benzylidene] indolin-2-one] | 46 |

tested on: DU-145; test: NCI-60 antiproliferative screen (SRB); assay type: cell-based, human; details: Homo sapiens; 10 µM single dose, 48 h; DU-145 (Prostate); read-out: Growth inhibition (%)

| Structure (SMILES) | inhibition at 10 µM [%] |
| --- | --- |
| O=C1Nc2ccccc2C1=Cc1ccc(OCc2ccncc2)cc1 (mixture of isomers) [Compound 5m, (E/Z)-3-[4-(Pyridin-4-ylmethoxy)benzylidene] indolin-2-one] | 33.7 |

tested on: MCF7; test: NCI-60 antiproliferative screen (SRB); assay type: cell-based, human; details: Homo sapiens; 10 µM single dose, 48 h; MCF7 (Breast); read-out: Growth inhibition (%)

| Structure (SMILES) | inhibition at 10 µM [%] |
| --- | --- |
| O=C1Nc2ccccc2C1=Cc1ccc(OCc2ccncc2)cc1 (mixture of isomers) [Compound 5m, (E/Z)-3-[4-(Pyridin-4-ylmethoxy)benzylidene] indolin-2-one] | 71.6 |

tested on: MDA-MB-231; test: NCI-60 antiproliferative screen (SRB); assay type: cell-based, human; details: Homo sapiens; 10 µM single dose, 48 h; MDA-MB-231 (Breast); read-out: Growth inhibition (%)

| Structure (SMILES) | inhibition at 10 µM [%] |
| --- | --- |
| O=C1Nc2ccccc2C1=Cc1ccc(OCc2ccncc2)cc1 (mixture of isomers) [Compound 5m, (E/Z)-3-[4-(Pyridin-4-ylmethoxy)benzylidene] indolin-2-one] | 16.6 |

tested on: MDA-MB-468; test: NCI-60 antiproliferative screen (SRB); assay type: cell-based, human; details: Homo sapiens; 10 µM single dose, 48 h; MDA-MB-468 (Breast); read-out: Growth inhibition (%)

| Structure (SMILES) | inhibition at 10 µM [%] |
| --- | --- |
| O=C1Nc2ccccc2C1=Cc1ccc(OCc2ccncc2)cc1 (mixture of isomers) [Compound 5m, (E/Z)-3-[4-(Pyridin-4-ylmethoxy)benzylidene] indolin-2-one] | 91.1 |

tested on: SR; test: NCI-60 antiproliferative screen (SRB); details: Homo sapiens, 48 h, read-out: Growth inhibition (%)

| Structure (SMILES) | inhibition at 10 µM [%] |
| --- | --- |
| O=C1Nc2ccccc2C1=Cc1ccc(OCc2ccncc2)cc1 (mixture of isomers) [Compound 5m, (E/Z)-3-[4-(Pyridin-4-ylmethoxy)benzylidene] indolin-2-one] | 73.3 |

tested on: OVCAR-4; test: NCI-60 antiproliferative screen (SRB); details: Homo sapiens, OVCAR-4, 48 h, read-out: Growth inhibition (%)

| Structure (SMILES) | inhibition at 10 µM [%] |
| --- | --- |
| O=C1Nc2ccccc2C1=Cc1ccc(OCc2ccncc2)cc1 (mixture of isomers) [Compound 5m, (E/Z)-3-[4-(Pyridin-4-ylmethoxy)benzylidene] indolin-2-one] | 42.7 |
